Data reported in patent US11279678B2 (SHANGHAI ECUST BIOMEDICINE CO., LTD., priority 2017, dated 2022).
Read-outs that look alike come from different tables or passages of the source.

What was measured:
[1] = test system: human breast cancer cell MDA-MB-231; test: In vitro antitumor activity on tumor cell lines (CCK-8 method), MDA-MB-231; format: cell-based; conditions: MDA-MB-231, 72 hours
Procedure: (§1) Evaluation of In Vitro Antitumor Activity of Compounds on Multiple Tumor Cell Lines (CCK-8 Method)
(§2) Take the living cells with more than 90% cells for testing. The cell proliferation inhibition test was performed using the EnoGeneCell™ Counting Kit-8 (CK-8) cell viability test kit. The cell was digested, counted and prepared into a cell suspension with a concentration of 1×10^5/mL. 100 μL cell suspension (1×10^4 cells per hole) was added to each hole in the 96-well plate. The 96-well plate was cultured in a 37° C., 5% CO2 incubator for 24 hours. With every hole added with 100 μL respective drugged cultured medium, control groups were set up, including negative control group, solvent control group, and positive control group. Each group has 5 holes. The 96-well plates were cultured at 37° C., in 5% CO2 incubator for 72 hours. Afterward, 10 μL CCK-8 solution was added to each hole, and the culture plate was incubated in the incubator for 4 hours, and the OD value at 450 nm was determined by enzyme labeling instrument. The inhibition rate and IC50 value of these compounds on tumor cells such as human gastric cancer cell MGC-803, human liver cancer cell HepG2, human lung cancer cell A549 and human breast cancer cell MDA-MB-231 were calculated.

[2] = test system: gastric cancer MGC-803 transplanted tumor; test: Antitumor rate of oral administration in mice with MGC-803 transplanted tumor; format: in vivo; conditions: for Tumor inhibition rate (%): d0-d12 every 2 days, 7 times, tumor weight; for tumor size course: about 8 days after administration
Procedure: Antitumor rate of oral administration of the compound towards MGC-803 mice with transplanted tumor
After 1 week of adaptation, the mice were inoculated with gastric cancer MGC-803 tumor tissue subcutaneously. After the tumor grew for 100-300 mm^3, the animals were randomly grouped. For the drug group, each group of each compound had 6 mice, and 12 mice were in the control group. The intragastric administration was employed and the dosage of Ii, Ij, Ik and Il was 25 and 50 mg/kg. The positive control was CA4, the administration time was d0, d2, d4, d6, d8, d10, d12 days, 7 times in total. The tumor size was measured 3 times per week, together with mice weight. The mice were executed 14 days after inoculation and the tumor mass was taken and measured for its weight. The tumor inhibition rate was calculated as tumor weight inhibition rate, and the formula is tumor weight inhibition rate %=(1-treatment group average tumor weight/control group average tumor weight)×100%.

[3] = single intragastric administration, mice
Procedure: (§3) Acute Toxicity Test of Single Gastric Administration in Mice
(§4) Kunming mice (weight 17-22 g, equal male and female) were randomly grouped according to body weight, with 10 mice maximum per dose group in the experiment. […] Given by single intraperitoneal injection and a single intragastric injection, observations were done after 0.25 h, 0.5 h, 1 h, 2 h, 4 h, and 24 h respectively. The mortality rate was recorded. Afterward, the groups were observed once everyday, and the mortality rate was recorded for 14 days. On day 15, the living mice were sacrificed for pathological dissection.

[4] = test system: Hela cervical cancer cell line; test: In vitro proliferation inhibition of Hela cervical cancer cell line (MTT method); format: cell-based; conditions: for IC50: Hela cervical cancer cell line
Procedure: Evaluation of In Vitro Antitumor Activity of Hela Cervical Cancer Tumor Cell Lines with Compounds (MTT Method)
The cells were cultured in RPMI1640 medium containing 200 mL/L fetal bovine serum so that the cells were kept at logarithmic growth. The cells were inoculated to 96-well plate, with a density of 4˜8×10^4/ml, 37° C., and pre-cultured for 24 hours with added drugs. The drugs were set at 6 concentrations, each has 3 holes. After 48 hours of consequent effect, the nutrient solution was then removed and the cells were left for air-drying. Each hole was then added with cold 500 g/L trichloroacetic acid (TCA) 50 μL (final concentration of 100 g/L). After setting for 60 minutes, it was then rinsed for 4-5 times with ionized water and dried. Each hole then was added with 4 g/L SRB 100 μL left for 30 mins. Then it was rinsed with 10 mL/L acetic acid for 4 times, dried. Then 10 mmol Tris-base 200 μL per hole was added, then shaked and mixed, subsequently, oscillating on the plate oscillator for 5 min. The enzyme-linked immunoassay was used to determine the A value. To calibrate, a blank control was used, with a wavelength of 490 nm. Tumor inhibition rate (%)=(Average A value of the control cell hole−Average A value of the drugged hole A)/Average A value of the control cell hole×100%. The positive control cell holes were CA4, CB1, and CB1N. To calculate the IC50 value, the Logit method was used according to the cell growth inhibition rate of different concentrations of the drug.

[5] = test system: human gastric cancer cell MGC-803; test: In vitro antitumor activity on tumor cell lines (CCK-8 method), MGC-803; format: cell-based; conditions: MGC-803, 72 hours
Procedure: as §1, §2

[6] = test system: human liver cancer cell HepG2; test: In vitro antitumor activity on tumor cell lines (CCK-8 method), HepG2; format: cell-based; conditions: HepG2, 72 hours
Procedure: as §1, §2

[7] = test system: human lung cancer cell A549; test: In vitro antitumor activity on tumor cell lines (CCK-8 method), A549; format: cell-based; conditions: A549, 72 hours
Procedure: as §1, §2

in vivo = conditions: both, Kunming, mouse, po
Procedure: as §3, §4

[8] = 48 hours drug exposure, read-out: IC50
[9] = Homo sapiens, 48 hours drug exposure, read-out: IC50
[10] = Homo sapiens, read-out: IC50 values, Hela proliferation inhibition

| SMILES | IC50 ([1]; Homo sapiens) [µM] | IC50 [4, 9] [µM] | IC50 ([5]; Homo sapiens) [µM] | IC50 ([6]; Homo sapiens) [µM] | IC50 ([7]; Homo sapiens) [µM] | also measured |
| --- | --- | --- | --- | --- | --- | --- |
| COc1ccc(CCc2cc(OC)c(OC)c(OC)c2)cc1OC(=O)Cn1cc(F)c(=O)[nH]c1=O [Compound Ij, 2-methoxy-5-(3,4,5-trimethoxyphenethyl)-phenyl-2-(5-fluoro-2,4-dioxo-3,4-dihydropyrimidin-1(2H)-yl)acetate] |  |  |  |  |  | IC50 [1]: 15.4 µM; Tumor inhibition rate (%) ([2]; 25 mg/kg intragastric): 53%; Tumor inhibition rate (%) ([2]; 50 mg/kg intragastric): 80%; tumor size course [2]: tendency to shrink; LD50 [3]: 1015 mg/kg; IC50 [4, 8]: 0.0323 µM; IC50 [5]: < 0.0003 µM; IC50 [6]: 0.141 µM; IC50 [7]: < 0.0003 µM |
| O=c1[nH]cc(F)c(=O)[nH]1 [Compound 5-FU, 5-fluorouracil, reference compound] | 97 | 0.113 | 62.5 | 0.004 | 34.9 | IC50 [4, 10]: 0.113 µM |
| COc1ccc(/C=C\c2cc(OC)c(OC)c(OC)c2)cc1OC(=O)CCn1cc(F)c(=O)[nH]c1=O [Compound Ik, (Z)-5-(3,4,5-trimethoxystyryl)-2-methoxyphenyl-3-(5-fluoro-2,4-dioxo-3,4-dihydropyrimidin-1(2H)-yl)propanoate] | 80.7 | 0.0296 | < 0.0003 | 7.33 | < 0.0003 | Tumor inhibition rate (%) ([2]; 25 mg/kg intragastric): 48%; Tumor inhibition rate (%) ([2]; 50 mg/kg intragastric): 75%; tumor size course [2]: tendency to shrink; LD50 at 14 days (in vivo): > 1000 mg/kg; LD50 [3]: 1185 mg/kg |
| COc1ccc(C=Cc2cc(OC)c(OC)c(OC)c2)cc1NC(=O)CCn1cc(F)c(=O)[nH]c1=O [Compound Ic, 3-(5-fluoro-2,4-dioxo-3,4-dihydropyrimidin-1(2H)-yl)-N-(5-(3,4,5-trimethoxystyryl)-2-methoxyphenyl)-propanamide] | 122 | 0.029 | 48.5 | 150 | 57.9 | proliferation inhibitory activity on Hela compared to 5-fluorouracil ([4]; ratio to 5-fluorouracil): 4 times; proliferation inhibitory activity on Hela compared to CA4 ([4]; ratio to CA4): 14 times |
| COc1ccc(/C=C\c2cc(OC)c(OC)c(OC)c2)cc1OC(=O)Cn1cc(F)c(=O)[nH]c1=O [Compound Ii, (Z)-2-methoxy-5-(3,4,5-trimethoxystyryl)-phenyl-2-(5-fluoro-2,4-dioxo-3,4-dihydropyrimidin-1(2H)-yl)acetate] |  |  |  |  |  | IC50 [1]: 0.4 µM; Tumor inhibition rate (%) ([2]; 25 mg/kg intragastric): 62%; Tumor inhibition rate (%) ([2]; 50 mg/kg intragastric): 85%; tumor size course [2]: tendency to shrink; LD50 [3]: 1059 mg/kg; IC50 [4, 8]: 0.0314 µM; IC50 [5]: < 0.0003 µM; IC50 [6]: 0.0228 µM; IC50 [7]: < 0.0003 µM |
| COc1ccc(/C=C\c2cc(OC)c(OC)c(OC)c2)cc1OC(=O)CCCn1cc(F)c(=O)[nH]c1=O [Compound Im, (Z)-2-methoxy-5-(3,4,5-trimethoxystyryl)-phenyl-4-(5-fluoro-2,4-dioxo-3,4-dihydropyrimidin-1(2H)-yl)butanoate] |  | 0.03 |  |  |  |  |
| COc1ccc(/C=C\c2cc(OC)c(OC)c(OC)c2)cc1O [CA4, combretastatin A-4, reference compound] | 0.0033 | 0.4 | 0.0206 | 1280 | 0.00254 | LD50 (in vivo): 1280 mg/kg; IC50 [4, 10]: 0.4 µM |
| COc1ccc(C=Cc2cc(OC)c(OC)c(OC)c2)cc1NC(=O)CCCn1cc(F)c(=O)[nH]c1=O [Compound Ie, 4-(5-fluoro-2,4-dioxo-3,4-dihydropyrimidin-1(2H)-yl)-N-(5-(3,4,5-trimethoxystyryl)-2-methoxyphenyl)-butanamide] |  | 0.0688 |  |  |  |  |
| CCOc1ccc(CCc2cc(OC)c(OC)c(OC)c2)cc1NC(=O)CCn1cc(F)c(=O)[nH]c1=O [Compound Ih, N-(5-(3,4,5-trimethoxyphenethyl)-2-ethoxyphenyl)-3-(5-fluoro-2,4-dioxo-3,4-dihydropyrimidin-1(2H)-yl)propanamide] | 60.6 | > 0.37 | 23.2 | 171 | 15.2 |  |
| COc1ccc(CCc2cc(OC)c(OC)c(OC)c2)cc1NC(=O)CCn1cc(F)c(=O)[nH]c1=O [Compound Id, 3-(5-fluoro-2,4-dioxo-3,4-dihydropyrimidin-1(2H)-yl) N-(5-(3,4,5-trimethoxyphenethyl)-2-methoxyphenyl)-propanamide] |  |  |  |  |  | IC50 [1]: 70.2 µM; IC50 [4, 8]: 0.0298 µM; IC50 [5]: 50.6 µM; IC50 [6]: 110 µM; IC50 [7]: 38 µM |
| CCOc1ccc(CCc2cc(OC)c(OC)c(OC)c2)cc1OC(=O)Cn1cc(F)c(=O)[nH]c1=O [Compound In, 5-(3,4,5-trimethoxyphenethyl)-2-ethoxyphenyl 2-(5-fluoro-2,4-dioxo-3,4-dihydropyrimidin-1(2H)-yl)acetate] | 102 | 0.04 | 19.3 | 468 | 4.26 |  |
| COc1ccc(CCc2cc(OC)c(OC)c(OC)c2)cc1O [Erianin, reference compound] |  |  |  |  |  | LD50 [3]: 2531 mg/kg |
| CCOc1ccc(CCc2cc(OC)c(OC)c(OC)c2)cc1OC(=O)CCn1cc(F)c(=O)[nH]c1=O [Compound Io, 5-(3,4,5-trimethoxyphenethyl)-2-ethoxyphenyl-3-(5-fluoro-2,4-dioxo-3,4-dihydropyrimidin-1(2H)-yl)propanoate] | 2.57 | 0.0343 | 0.609 | 0.0017 | 0.0003 |  |
| CCOc1ccc(CCc2cc(OC)c(OC)c(OC)c2)cc1NC(=O)Cn1cc(F)c(=O)[nH]c1=O [Compound Ig, N-(5-(3,4,5-trimethoxyphenethyl)-2-ethoxyphenyl)-2-(5-fluoro-2,4-dioxo-3,4-dihydropyrimidin-1(2H)-yl)acetamide] | 60.2 | 0.0471 | 25.8 | 39.4 | 59.9 |  |
| COc1ccc(/C=C\c2cc(OC)c(OC)c(OC)c2)cc1NC(=O)Cn1cc(F)c(=O)[nH]c1=O [Compound Ia, (Z)-2-(5-fluoro-2,4-dioxo-3,4-dihydropyrimidin-1(2H)-yl)-N-(2-methoxy-5-(3,4,5-trimethoxystyryl)-phenyl)acetamide] | 112 | 0.046 | 64.2 | 0.0124 | 27.5 |  |
| COc1ccc(CCc2cc(OC)c(OC)c(OC)c2)cc1NC(=O)CCCn1cc(F)c(=O)[nH]c1=O [Compound If, 4-(5-fluoro-2,4-dioxo-3,4-dihydropyrimidin-1(2H)-yl)-N-(5-(3,4,5-trimethoxyphenethyl)-2-methoxyphenyl)-butanamide] |  | 0.0288 |  |  |  |  |
| COc1ccc(CCc2cc(OC)c(OC)c(OC)c2)cc1NC(=O)Cn1cc(F)c(=O)[nH]c1=O [Compound Ib, 2-(5-fluoro-2,4-dioxo-3,4-dihydropyrimidin-1(2H)-yl)-N-(5-(3,4,5-trimethoxyphenethyl)-2-methoxyphenyl)-acetamide] | 3.21 | 0.0291 | 1.86 | < 0.19 | < 0.19 |  |
